The text below walks through data of patent US20250288558A1, “THERAPEUTIC FOR SPINAL CORD INJURY TO INDUCE HYPOTHERMIA” (The Trustees of Indiana University, priority 2024, published 2025).

Experiment [1] relates to mice with moderate T9 contusive SCI. The conditions noted are these: weeks 3-6 post-injury, n=10, p<0.05. The source says:
Thus, Rotarod was further performed to assess motor coordination, balance, and motor learning specifically post-injury.
Rotarod test: Rotorod is used to assay the hindlimb function of the animal. The animal was put on a rotated device. It consisted of a metal frame with a motorized, rotating assembly of rods. Animals were allowed to remain stationary. […] If animal skilled, it can remain on the device at this speed for extra 30 sec until the 2-min test period elapsed. Normally, a trial was ended if the animal fell completely off the rod or gripped the rod and spun around without attempting to walk on the rod. Mean duration on the rod was recorded.

For experiment [2], the system named is mice with contusive T9 moderate SCI (IH). The conditions noted are these: 6 wk, SCI+Dex, n=10. Here is the method: (§1) Grid-walking: The grid-walking test assesses the ability of a mouse to place its paws on the rungs of a grid accurately during spontaneous exploration. An elevated metal rectangle grid (12×36 inch2 with each grid cell 0.5×0.5 inch2) and 16 inches above a table top was used for the hindlimb drop error test. Each mouse was placed in the center of the grid for 3 min. A one-foot drop error was counted when the hindlimb paw was entirely dropping through the grid with all toes and heel below the grid surface. The total number of foot drop errors and total number of steps were recorded by video. Two observers who were blinded to the experiment analyzed the video and counted the steps. The grid-walking test was performed on the day before surgery and on days 21 and 35 post-SCI. Only those mice with consistent plantar stepping (BMS≥5) were tested on the grid.

For experiment [3], the system named is mice with moderate T9 contusive SCI. The conditions noted are these: n=10; for foot fall rate: Dex+SCI.
Excerpt: In addition to Rotarod test, Grid walk test further was ran twice at […] post-injury to assess hindlimb movements involved in sensorimotor functions, such as precise stepping, coordination and accurate placement of the paw. A one-foot drop error was counted when the hindlimb paw was entirely dropping through the grid with all toes and heel below the grid surface.
as §1

Experiment [4] concerns mice with moderate contusive spinal cord injury (SCI) at thoracic 9 (T9). As to the method: The effects of different doses of Dex on hypothermia induction in none-injury young adult c57 BL/6 mice was tested. […] Further, we examined the change of Dex induced hypothermia when the routine Avertin (2.5%), a wildly used anesthetic for small animal surgery was applied.
Therefore, we compared the functional outcomes of Dex treated SCI mice with SCI only mice using multiple behavior tests post-trauma. C57 BL/6 wild type mice (female) at age of 8 weeks were randomly assigned into three different groups, including sham, SCI, and SCI+Dex. Then the moderate T9 contusive SCI was introduced in two injury groups using LISA injury model. Mice in sham and SCI only group were put on the heating pad to maintain their normal body temperature, while mice in Dex treated group were exposed in ambient room temperature of 24.5° C. for hypothermia during whole surgery and recovery process. One hour after injury, one dose of Dex (100 μg/kg) was IP administrated to rapidly induce early moderate to modest therapeutic hypothermia (30-32° C.). All mice body temperature were measured by rectal probe every 30 minutes to monitor the hypothermia after surgery till the mice fully waked up and back to normothermia. After SCI injury, at different time, multiple behavioral tests, were applied to examine functional outcomes and the potential neuroprotective effects of Dex treatment (FIG. 3A). The Basso Mouse Scale (BMS) was a reliable measurement that developed to examine the locomotion in spinal cord injured mice. It has been widely used in mouse functional evaluation and serves as an indicator of recovery. This test examines different locomotor categories such as paralysis, weight support, stepping, trunk stability, and so on. The scores ranged from 9 to 0 that represent normal movement to complete paralysis, respectively. Three days prior surgery, the BMS scores of all mice in different groups were measured. Only mice with 9 score were kept. The mice with score lower than 9 were replaced to make sure mice in different groups had same baseline of locomotion. After surgery, the BMS score was repeatedly measured at 3 days, 1 week, 2 weeks, 3 weeks, 4 weeks, 5 weeks, and 6 weeks (FIG. 3B).
Contusive spinal cord injury: Adult female C57BL/6 mice (8 weeks old, 18-22 g) were purchased from The Jackson Laboratory (Bar Harbor, ME). Depending on different injury model, mice were either randomly divided into three groups: sham, SCI+heating pad, and SCI+Dex for LISA injury model, or were randomly divided into four groups: sham, SCI+heating pad, SCI+Dex, and SCI+Conventional hypothermia for Infinite Horizons (IH) model. […]

The subject of another experiment is GFAP. The conditions noted are these: epicenter. Here is the method: (§2) Immunofluorescent Staining: Immunofluorescent staining was carried out according to our previous reports. In brief, sections on the slides were rinsed in PBS 3 times (5 minutes each) and incubated in blocking buffer (0.1% Triton X-100, 1% bovine serum albumin, and 5% normal serum in PBS) for 1 hour at room temperature. Then, primary antibodies were added to blocking buffer and incubated with sections overnight at 4° C. After 3 washes with PBS (5 minutes each), sections were incubated with the secondary antibody for 1 hour at room temperature and then treated with 4′,6-Diamidino-2-phenylindole (DAPI) for 2 minutes. Finally, sections were washed 3 times with PBS (5 minutes each), dried, and mounted using Fluoromount G (Southern Biotech, Birmingham, AL, USA). Primary antibodies and their final concentrations were as follows: NeuN antibody (1:500, chicken, Abcam, ab134014), SMI31 antibody (1:1000, mouse, Millipore, NE1022), and GFAP antibody (1:1000, mouse, Sigma, G3893).

Experiment [5] concerns mouse with a SCI. The conditions noted are these: 4 hours after 1 ml saline IP injection, n=5.
The next experiment relates to NeuN-positive neurons. The conditions noted are these: after SCI, FIG. 8A. Here is the method:
(§3) We further counted the number of NeuN-positive neurons in each section. […] Therefore, SMI31, an axon maker immunostaining was performed to evaluate the axons in spared white matter.
as §2

Experiment [6] has as its system SMI31-positive axons in white matter. The conditions noted are these: FIG. 8B. Here is the method: as §3, §2
Experiment [7] deals with mouse with a SCI. The conditions noted are these: metabolic cage, n=5.

Counter-ions that a name gives are not always drawn. Like-named read-outs stand apart in the source and are kept apart here.

For the molecule `Cc1cccc([C@H](C)c2cnc[nH]2)c1C` [Dex, dexmedetomidine hydrochloride], the “increased rate of Rotarod retention time vs. SCI only” value in experiment [1] is reported as “around 75%”. Moreover, the “Grid walk foot fall” value in [2] worked out at 12.9±3.6. Further, the foot fall rate in experiment [3] (4 weeks post-injury) was found to be 17.3±5.1%; in experiment [3] (6 weeks post-injury), 12.9±3.6%. In experiment [3] (FIG. 3D, female), the “recovery of sensorimotor functions (Grid Walk)” value is recorded as “better recovery of sensorimotor functions”. The “time at which normal body temperature was regained” value in experiment [4] (Dex 100 μg/kg 1 hour after T9 SCI) was 24 hr post trauma. In experiment [4] (Dex 100 μg/kg one hour after T9 SCI (LISA)), the duration of hypothermia result is “up to 16 hours”. The “time to spontaneously rewarm to normal temperature” value in experiment [4] (Dex 100 μg/kg one hour after T9 SCI, after the hypothermia period) lay in the range of 5 to 6 h. For the same molecule, in [4] (Dex 100 μg/kg one hour after T9 SCI, spontaneous rewarming, hydrochloride), the rewarming rate is less than 1.0 °C per hour. In the experiment on GFAP, the “intensity of GFAP-positive signal compared to none-treatment SCI mice” value is “decreased significantly”. The frequency of urination with mouse with a SCI [5] stood at 6±0.82. This molecule also returned a urine volume in the experiment on mouse with a SCI [5] of 0.3 ± 0.04 mL. Besides, in the experiment with NeuN-positive neurons, the “surviving NeuN-positive neurons compared to none-treatment group” value is “about 10 times”. For the same molecule, in [6], the “SMI31 signal (intensity and area) vs. SCI” value was “significantly preserved more”. The urination volume in the experiment with mouse with a SCI [7] (24 hours) was determined as 0.48 ± 0.22 mL. The molecule further gave a residual urine volume with mouse with a SCI [7] of 0.4 ± 0.22 mL.
